From PubChem BioAssay (NCI)
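96-well plates; 48 h exposure; 5 concentrations. Endpoints by linear interpolation between flanking doses. Not reached: highest tested concentration assigned. GI50 marks 50% less growth. TGI marks complete inhibition of growth.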

Assays:
Assay in all cases: NCI-60 cell line screen, 48 h
SR leukemia = tested on: SR leukemia
NCI-H226 lung = tested on: NCI-H226 lung
MOLT-4 leukemia = tested on: MOLT-4 leukemia
M14 melanoma = tested on: M14 melanoma
CAKI-1 renal = tested on: CAKI-1 renal
OVCAR-8 ovarian = tested on: OVCAR-8 ovarian
OVCAR-3 ovarian = tested on: OVCAR-3 ovarian
U251 CNS = tested on: U251 CNS
SNB-75 CNS = tested on: SNB-75 CNS
KM12 colon = tested on: KM12 colon
DU-145 prostate = tested on: DU-145 prostate
A549 NSCLC = tested on: A549 NSCLC
HS 578T breast = tested on: HS 578T breast
UO-31 renal = tested on: UO-31 renal
IGROV1 ovarian = tested on: IGROV1 ovarian
BT-549 breast = tested on: BT-549 breast
PC-3 prostate = tested on: PC-3 prostate
OVCAR-5 ovarian = tested on: OVCAR-5 ovarian
UACC-62 melanoma = tested on: UACC-62 melanoma
COLO 205 colon = tested on: COLO 205 colon
SK-MEL-2 melanoma = tested on: SK-MEL-2 melanoma
UACC-257 melanoma = tested on: UACC-257 melanoma
SNB-19 CNS = tested on: SNB-19 CNS
A498 renal = tested on: A498 renal
SK-MEL-5 melanoma = tested on: SK-MEL-5 melanoma
MDA-MB-435 = tested on: MDA-MB-435
T-47D breast = tested on: T-47D breast
HOP-62 NSCLC = tested on: HOP-62 NSCLC
MDA-MB-468 breast = tested on: MDA-MB-468 breast
RXF 393 renal = tested on: RXF 393 renal

SMILES: O=C1Nc2cc(-c3ccc(NS(=O)(=O)c4ccc([N+](=O)[O-])cc4)cc3)ccc2/C1=C/c1ccc[nH]1
- GI50 (SR leukemia): 10.3 µM
- TGI (SR leukemia): > 100 µM
- GI50 (NCI-H226 lung): 12.2 µM
- TGI (NCI-H226 lung): 30.1 µM
- GI50 (MOLT-4 leukemia): 8.77 µM
- TGI (MOLT-4 leukemia): > 100 µM
- GI50 (M14 melanoma): 13.8 µM
- TGI (M14 melanoma): 43.1 µM
- GI50 (CAKI-1 renal): 14.1 µM
- TGI (CAKI-1 renal): 36.6 µM
- GI50 (OVCAR-8 ovarian): 15.8 µM
- TGI (OVCAR-8 ovarian): 36.2 µM
- GI50 (OVCAR-3 ovarian): 13.9 µM
- TGI (OVCAR-3 ovarian): 32.4 µM
- GI50 (U251 CNS): 13.6 µM
- TGI (U251 CNS): 27.3 µM
- GI50 (SNB-75 CNS): 20.4 µM
- TGI (SNB-75 CNS): > 100 µM
- GI50 (KM12 colon): 14.3 µM
- TGI (KM12 colon): 65.6 µM
- GI50 (DU-145 prostate): 16 µM
- TGI (DU-145 prostate): 33.6 µM
- GI50 (A549 NSCLC): 12.1 µM
- TGI (A549 NSCLC): 28.9 µM
- GI50 (HS 578T breast): 22.5 µM
- TGI (HS 578T breast): > 100 µM
- GI50 (UO-31 renal): 6.74 µM
- TGI (UO-31 renal): > 100 µM
- GI50 (IGROV1 ovarian): 19.4 µM
- TGI (IGROV1 ovarian): > 100 µM
- GI50 (BT-549 breast): 10.5 µM
- TGI (BT-549 breast): 34.8 µM
- GI50 (PC-3 prostate): 11.6 µM
- TGI (PC-3 prostate): 65.2 µM
- GI50 (OVCAR-5 ovarian): 18.1 µM
- TGI (OVCAR-5 ovarian): 50.2 µM
- GI50 (UACC-62 melanoma): 10.3 µM
- TGI (UACC-62 melanoma): 29.7 µM
- GI50 (COLO 205 colon): 16 µM
- TGI (COLO 205 colon): 47.9 µM
- TGI (SK-MEL-2 melanoma): 71.4 µM
- GI50 (UACC-257 melanoma): 11.1 µM
- TGI (UACC-257 melanoma): 44.3 µM
- GI50 (SNB-19 CNS): 16.3 µM
- TGI (SNB-19 CNS): 56.6 µM
- GI50 (A498 renal): 18.4 µM
- TGI (A498 renal): 50.1 µM
- GI50 (SK-MEL-5 melanoma): 19.9 µM
- TGI (SK-MEL-5 melanoma): 72.7 µM
- GI50 (MDA-MB-435): 16.1 µM
- TGI (MDA-MB-435): 42.8 µM
- GI50 (T-47D breast): 4.77 µM
- TGI (T-47D breast): > 100 µM
- GI50 (HOP-62 NSCLC): 18 µM
- TGI (HOP-62 NSCLC): 44.1 µM
- GI50 (MDA-MB-468 breast): 0.778 µM
- TGI (MDA-MB-468 breast): 7.33 µM
- GI50 (RXF 393 renal): 13.3 µM
- TGI (RXF 393 renal): 31.6 µM
